Data taken from PMC7424564 (Pharmacology Research & Perspectives, 2020).
“Also recorded” adds a separate entry of the source.

Assays:
[1] = system: mutant BTK (C481S); settings: cited from earlier work
[2] = system: TMD8 cells; assay: Cell washout cytotoxicity assay; settings: TMD‐8 cells; 100 nmol/L
[3] = system: U2932 cell line; settings: cited from earlier work
[4] = system: arthritis; settings: cited from earlier work
[5] = system: IL‐6; settings: read-out: IC50 for IL‐6 inhibition; in‐vitro assays; cited from earlier work

## CC#CC(=O)N1CCC[C@H]1c1nc(-c2ccc(C(=O)Nc3ccccn3)cc2)c2c(N)nccn12 [ACP‐196]
[1]
  activity for the mutant BTK: appreciable activity

## CC#CC(=O)N1CC[C@@H](n2c(=O)n(-c3ccc(Oc4ccccc4)cc3)c3c(N)ncnc32)C1 [ONO/GS‐4050]
[1]
  activity for the mutant BTK: appreciable activity

## Cc1nc(Nc2ncc(C(=O)Nc3c(C)cccc3Cl)s2)cc(N2CCN(CCO)CC2)n1 [dasatinib]
[2]
  cytotoxic effect after drug wash‐off: failed to exert its effect when washed off; also recorded: completely lost its cytotoxic potential

## C=CC(=O)N1CCC[C@@H](n2nc(-c3ccc(Oc4ccccc4)cc3)c3c(N)ncnc32)C1 [ibrutinib]
[3]
  sensitivity of U2932 cell line to cytotoxicity: resistant
[1]; read-out: IC50 mutant BTK, C481S
  IC50: 1000 nM
[4]
  ED50 anti‐arthritic activity: 2.6 mg/kg/day
[5]
  IC50: 3.9 nM
